Here are results for two molecules from patent US20030229132A1, “Small molecule modulators of apoptosis” (priority 2002, published 2003).

Usually IC50 stands for the concentration that gives 50% inhibition. The term EC50 denotes the concentration at which the effect is half-maximal.

In test [1] the test system is CCRF-CEM. Kind of test: Cell viability, CCRF-CEM. The test is classed as cell-based, human. The note with it: leukemia. The source says: (§1) Samples were then probed by immunoblot for (A) caspase-3 activation or (B) cleavage of PARP. (C) DNA fragmentation analysis. […] The DNA was isolated by phenol/chloroform extraction, separated on a 2% agarose gel and visualized by ethidium bromide staining. Cell viability assay.
(§2) Normal cell lines include peripheral blood lymphocytes (PBL) isolated from donated human blood, non-transformed mammary fibroblasts (MCF-10A), human mammary epithelial cells (HMEC), human umbilical vein endothelial cells (HUVEC), and human prostate epithelial cells (PREC). Transformed cell lines include cell lines from leukemia, breast, lung, ovarian, and epidermal cancers (Table 1).

For test [2], the system named is peripheral blood lymphocytes (PBL). Kind of test: Cell viability, PBL. The test is classed as cell-based, human. The settings on record: normal cell.
From the text: as §1, §2

The subject of test [3] is Molt-4. In words: Cell viability, Molt-4. It is filed as cell-based, human. The settings on record: Molt-4, leukemia.
From the text: as §1, §2

Test [4] has as its system MDA-MB-468. In words: Cell viability, MDA-MB-468. The test is classed as cell-based. The settings on record: MDA-MB-468, breast.
From the text: as §2

The subject of test [5] is caspase-3 activation. Kind of test: Caspase-3 activation by gel filtration fractions of Apaf-1 complexes. It is filed as biochemical. The note with it: 20 μM compound, 0.15 μM cyto c; for extent of caspase-3 activation: vehicle alone 0.36. The protocol: FIG. 7 depicts activity of compounds 1-5 at low cyto c concentrations in a purified system. Apaf-1 was incubated with vehicle, cyto c, or cyto c plus 20 μM compound as indicated, and then separated on a Superose 6 gel filtration column. Individual fractions were assayed for relative Apaf-1 concentrations by capture ELISA (bar graph), or the ability to activate procaspase-3 processing in lysates (line graph). The percent of Apaf-1 in apoptosomes was determined by dividing the amount of Apaf-1 in fractions 8-11 by the total amount of Apaf-1. The extent of caspase-3 activation (given in arbitrary units) corresponds to the area under the curve for fractions 8-11 in each panel. Black bars represent fractions used for calculations.
As the compounds appeared to be acting prior to caspase activation, their effect on the oligomerization of Apaf-1 was assessed (K. Cain, D. G. Brown, C. Langlais, G. M. Cohen, J Biol Chem 274, 22686-92 (1999); K. Cain et al., J Biol Chem 275, 6067-70 (2000)). By gel filtration, Apaf-1 normally runs as a monomer of ˜140 kD (FIG. 7) (see, A. Saleh, S. M. Srinivasula, S. Acharya, R. Fishel, E. S. Alnemri, J Biol Chem 274, 17941-5 (1999)). Incubation of Apaf-1 with 5 μM cyto c induces over 90% of the Apaf-1 to form large complexes of ˜700 kD, whereas incubation with 0.15 μM cyto c concentration allowed only 22% of the Apaf-1 to assemble into complexes. However, the addition of 20 μM compound 2 or 5 at the lower cyto c concentration caused the formation of two higher molecular weight complexes: a major peak that runs at the same retention time as the complex seen at 5 μM cyto c (˜700 kD), and a minor peak that elutes in the void volume. […] To determine if the Apaf-1 complexes induced by the compounds at the lower cyto c concentration are competent for caspase activation, procaspase-9, procaspase-3, and dATP were added to fractions from the gel filtration column and assayed for caspase-3 activation. Fractions from samples that had been incubated with 5 μM cyto c strongly activated caspase-3 processing (FIG. 7, panel ii, line graph), with the maximal caspase activation corresponding to the fractions that contained the apoptosome complex. On the other hand, no fractions form the sample without cyto c activated capsase-3 processing (panel i). There was a small but measurable amount of capsase-3 activation when the cyto c concentration was reduced to 0.15 μM (panel iii). However, the extent of caspase-3 activation at the reduced level of cyto c increased approximately 4-fold when either compound 2 or 5 was added to the reaction (from 0.36 arbitrary units for the vehicle alone to 1.57 and 1.4 for compounds 2 and 5, respectively, panels iv and vi). […]
On the technique in general: In gel filtration, larger molecules generally elute earlier.

Test [6] has as its system human umbilical vein endothelial cells (HUVEC). In words: Cell viability, HUVEC. It is filed as cell-based. The settings on record: normal cell.
From the text: as §2

Test [7] concerns Jurkat cells. Kind of test: PARP cleavage in Jurkat cells (immunoblot). The test is classed as cell-based, human. The settings on record: 50 μM compound or 1 μM staurosporin, 6 hr. On the procedure:
(C) DNA fragmentation analysis. […] Cell viability assay.
Compounds were then tested for their ability to induce apoptosis in live cells. The ability of the compounds to activate caspase-3 in a Jurkat cell line was first assayed. […] This same pattern was seen when we assayed for the cleavage of poly (ADP-ribose) polymerase (PARP), a cellular substrate of caspases-3 and -7 (see, D. W. Nicholson, Cell Death Differ 6, 1028-42 (1999)). Upon apoptosis, PAR-P is cleaved from a 116 kD to an 85 kD protein.
(In western blotting, separated proteins are transferred to a membrane and probed.)

In test [8] the test system is BT-549. Kind of test: Cell viability, BT-549. It is filed as cell-based, human. The settings on record: BT-549, breast.
From the text: as §2

In test [9] the test system is human prostate epithelial cells (PREC). In words: Cell viability, PREC. The test is classed as cell-based.
From the text: as §2

The subject of test [10] is Jurkat cells. In words: Cell viability by MTT test, Jurkat. It is filed as cell-based, human. On the procedure: as §1
One of the hallmarks of apoptosis is the fragmentation of chromosomal DNA into discrete, nucleosomal sized bands. […] We then examined the effects of the compounds on cell viability. Jurkat cells were incubated at different concentrations of compounds for 22 hr and then assayed by MTT test.
as §2
(Formazan colour is commonly taken as a measure of viable cells.)

The subject of test [11] is SK-OV-3. Kind of test: Cell viability, SK-OV-3. It is filed as cell-based.
From the text: as §2

A value given as a limit tells only on which side of the number the result lay.

On to `O=C1C(=O)N(Cc2ccc(Cl)c(Cl)c2)c2ccccc21` [Compound 2], for which the IC50 in test [1] turned out to be 9 µM; in [2], 50 µM; in [3], 6 µM; in test [4], 44 µM; in test [6] it was 43 µM; in [8] it was 20 µM. In addition, the IC50 was more than 50 µM in test [9] (PREC, normal cell); 4 µM in [10] (Jurkhat, leukemia, p53 +); more than 50 µM in test [11] (SK-OV-3, ovarian, Apaf-1 deficient). Further, the “increase in caspase-3 activation over vehicle alone” value in [5] is listed as “approximately 4 fold”. The “extent of caspase-3 activation” value in test [5] stood at 1.57 arbitrary units. The “cleavage of PARP” value in [7] was “complete cleavage”. Further, the effect on cells entry in test [9] (PREC cells, up to 50 μM) is on record as “no effect except at the highest concentration”; in test [11] (SK-OV-3, deficient in Apaf-1 activity), “no effect”. Also, the EC50 in test [10] (Jurkat, 22 hr, MTT test, read-out: EC50 cell killing) was approximately 5 µM.

Turning to `O=C(NCc1ccc(Cl)c(Cl)c1)OC1CCc2ccccc21` (stereo not drawn) [Compound 5], in test [5], the “increase in caspase-3 activation over vehicle alone” value is reported as “approximately 4 fold” and the “extent of caspase-3 activation” value worked out at 1.4 arbitrary units. For the same molecule, the “cleavage of PARP” value in test [7] is “limited processing”.
